Among the test systems are KM12 colon; RXF 393 renal; HCT-116 colon; UO-31 renal; 786-0 renal; SW-620 colon; SN12C renal; HS 578T breast; M14 melanoma; SK-MEL-5 melanoma.
Common to all, as to assay: DTP human tumour cell line panel, 48 h

Where “and” joins values, the source holds several entries; their conditions need not be identical. Equal values may be shown once.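 Growth conditions: 96-well plates. Treatment: test compound, 48 hours, 5 concentrations. Analysis: linear interpolation between bracketing concentrations; unreached endpoints set to highest concentration. At the GI50, growth is halved. TGI denotes the concentration required for complete inhibition of growth.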 Bounds are passed on as bounds.

These results are taken from PubChem BioAssay (NCI).

`O=C1NC(=O)N(S(=O)(=O)c2cc(C(=O)Nc3ccc(Cl)cc3)c(Cl)cc2S)S(=O)(=O)N1`: the GI50 in the experiment with KM12 colon was 18.6 µM; with RXF 393 renal, 0.67 µM; with HCT-116 colon, 19.4 µM; with UO-31 renal it was 19.6 µM; with 786-0 renal, 17.9 µM; in the experiment with SW-620 colon, 20.4 µM. Further, the GI50 was 21.9 µM in the experiment with SN12C renal, 21.1 µM in the experiment with HS 578T breast, 16.2 µM in the experiment with M14 melanoma and 13.1 µM in the experiment on SK-MEL-5 melanoma. Also, the TGI with KM12 colon came to 34.8 µM; in the experiment on RXF 393 renal, 18.2 µM; in the experiment with HCT-116 colon, 35.4 µM; in the experiment with UO-31 renal, 46.5 µM; in the experiment with 786-0 renal, 33.7 µM; with SW-620 colon it was 44.5 µM. The TGI stood at 50.2 µM with SN12C renal, 55.4 µM with HS 578T breast, 31.6 µM with M14 melanoma and 28.5 µM with SK-MEL-5 melanoma.
In the case of `CC(=O)O[C@H]1C[C@@H]2[C@@]3(C)CC[C@H]4C[C@@]4(C)[C@@H]3CC[C@@]2(C)C2=CCC3=C(COC3=O)[C@]21C`, the GI50 in the experiment on KM12 colon was 18.7 µM; in the experiment with RXF 393 renal it was 21.2 µM; in the experiment with HCT-116 colon it was 19.5 µM; with UO-31 renal it was 32.1 µM; in the experiment on 786-0 renal, 18.6 µM; in the experiment with SW-620 colon, 19.4 µM. For the same molecule, the GI50 in the experiment with SN12C renal is 18.7 µM; with HS 578T breast, 10.2 µM; in the experiment with M14 melanoma, 22.6 µM; in the experiment on SK-MEL-5 melanoma, 17.7 µM. Also, the concentration for total growth inhibition (TGI) with KM12 colon was 43.6 µM; in the experiment with RXF 393 renal, 52.6 µM; with HCT-116 colon, 43.7 µM; in the experiment on UO-31 renal, > 100 µM; in the experiment with 786-0 renal, 37.7 µM; in the experiment with SW-620 colon, 43.6 µM. The TGI in the experiment with SN12C renal was found to be 38.3 µM; in the experiment on HS 578T breast it was 27.3 µM; in the experiment with M14 melanoma it was 47.3 µM; in the experiment on SK-MEL-5 melanoma, 34.5 µM.
With `CCOC(=O)C#Cc1c(C(=O)OCC)nnn1[C@@H]1O[C@H](COC)[C@@H](OC)[C@H]1OC`, the GI50 in the experiment with KM12 colon was 16.7 µM; in the experiment on RXF 393 renal, 1.97 µM; in the experiment with HCT-116 colon it was 3.33 µM; in the experiment with UO-31 renal it was 1.88 µM; with 786-0 renal it was 13.3 µM; in the experiment on SW-620 colon it was 1.99 µM. Besides, the GI50 is 3.81 µM with SN12C renal, 23.7 µM in the experiment on HS 578T breast, 3.27 µM in the experiment with M14 melanoma and 14.3 µM with SK-MEL-5 melanoma. Also, the TGI with KM12 colon was 33.3 µM; in the experiment with RXF 393 renal it was 4.14 µM; with HCT-116 colon, 10.7 µM; in the experiment on UO-31 renal it was 4.38 µM; with 786-0 renal, 26.7 µM; with SW-620 colon, 4.06 µM. Besides, the TGI came to 14.6 µM in the experiment with SN12C renal, 72.7 µM in the experiment on HS 578T breast, 10.8 µM in the experiment on M14 melanoma and 27.4 µM in the experiment on SK-MEL-5 melanoma.
`O=C(O)CSc1cc(NS(=O)(=O)c2ccc(Br)cc2)c2ccccc2c1O`: the GI50 with KM12 colon was 11.6 µM; in the experiment with RXF 393 renal, 13.8 µM; in the experiment with HCT-116 colon, 5.65 µM; in the experiment with UO-31 renal, 12 µM; in the experiment with 786-0 renal it was 19.9 µM; with SW-620 colon, 14.4 µM. The GI50 in the experiment with SN12C renal was 2.27 µM; in the experiment on HS 578T breast, 7.65 µM; with M14 melanoma, 15.1 µM; with SK-MEL-5 melanoma, 14.7 µM. Further, the TGI in the experiment on KM12 colon turned out to be 25.7 µM; in the experiment on RXF 393 renal, 27.9 µM; with HCT-116 colon, 16.2 µM; with UO-31 renal, 25.2 µM; in the experiment on 786-0 renal, 38.3 µM; in the experiment on SW-620 colon, 33.7 µM. Besides, the TGI with SN12C renal stood at 5.44 µM; with HS 578T breast it was 80.1 µM; in the experiment on M14 melanoma it was 29.5 µM; in the experiment with SK-MEL-5 melanoma, 27.9 µM.
Take `CN(C)c1ccc(/C=N/N=C(\C#N)[S][Sn]([Cl])([c]2ccccc2)[c]2ccccc2)cc1`: the GI50 in the experiment with KM12 colon was 1.8 µM; in the experiment on RXF 393 renal, 1.38 µM; with HCT-116 colon it was 1.32 µM; in the experiment with UO-31 renal it was 1.58 µM; in the experiment with 786-0 renal, 1.48 µM; with SW-620 colon, 0.853 µM. The GI50 with SN12C renal is 1.59 µM; in the experiment on HS 578T breast it was 2.7 µM; in the experiment with M14 melanoma, 1.72 µM; with SK-MEL-5 melanoma, 1.66 µM. Besides, the concentration for total growth inhibition (TGI) in the experiment on KM12 colon amounted to 3.94 µM; with RXF 393 renal it was 2.72 µM; in the experiment on HCT-116 colon, 2.63 µM; with UO-31 renal, 3.08 µM; in the experiment on 786-0 renal it was 2.83 µM; in the experiment on SW-620 colon it was 2.45 µM. Moreover, the concentration for total growth inhibition (TGI) with SN12C renal turned out to be 3.12 µM; in the experiment on HS 578T breast, 9.19 µM; in the experiment with M14 melanoma, 3.38 µM; with SK-MEL-5 melanoma, 3.37 µM.
Turning to `O=C1[C@H](Cc2ccc(O)cc2)N2C(=O)CCN(C(=O)NCc3ccccc3)[C@H]2CN1Cc1cccc2ccccc12`, the GI50 in the experiment on KM12 colon is 3.1 µM; in the experiment on RXF 393 renal, 3.8 µM; in the experiment on HCT-116 colon, 0.916 µM; in the experiment on UO-31 renal, 11.3 µM; in the experiment with 786-0 renal, 3.15 µM; with SW-620 colon, 4.49 µM. The GI50 was 4.18 µM in the experiment on SN12C renal, 0.851 µM in the experiment on HS 578T breast, 3.61 µM with M14 melanoma and 2.28 µM in the experiment on SK-MEL-5 melanoma. Also, the TGI was 15.3 µM in the experiment on KM12 colon; 14.5 µM in the experiment on RXF 393 renal; 12.7 µM with HCT-116 colon; 77.9 µM with UO-31 renal; > 46.8 µM with 786-0 renal; > 55 µM with SW-620 colon. Also, the TGI was > 100 µM in the experiment with SN12C renal, 7.24 µM in the experiment on HS 578T breast, 20.1 µM in the experiment with M14 melanoma and 11.4 µM with SK-MEL-5 melanoma.
With `OCc1ccc(N2CCc3ccc(F)cc3C2)cc1Cl`, the GI50 in the experiment with KM12 colon is 10.5 µM; in the experiment on RXF 393 renal it was 0.373 µM; in the experiment on HCT-116 colon it was 0.0267 µM; in the experiment with UO-31 renal, 1.52 µM; in the experiment on 786-0 renal, 3.11 µM; in the experiment on SW-620 colon, 0.18 µM. Moreover, the GI50 in the experiment with SN12C renal was 8.22 µM; in the experiment on HS 578T breast, 15.8 µM; in the experiment on M14 melanoma, 14.5 µM; with SK-MEL-5 melanoma, 0.856 µM. The TGI in the experiment with KM12 colon was found to be 26 µM; in the experiment on RXF 393 renal, 12.1 µM; in the experiment on HCT-116 colon it was 11.1 µM; in the experiment with UO-31 renal, 17.3 µM; with 786-0 renal, 23.8 µM; with SW-620 colon it was 11.2 µM. In addition, the total growth inhibition concentration (TGI) in the experiment with SN12C renal came to 22.9 µM; with HS 578T breast it was 48.4 µM; with M14 melanoma, 30 µM; in the experiment with SK-MEL-5 melanoma, 20 µM.
With `O=C1NC(=NCc2cccs2)O/C1=C\c1ccc2ncccc2c1`, the GI50 in the experiment on KM12 colon is 7.45 µM; in the experiment on RXF 393 renal, 4.63 µM; in the experiment on HCT-116 colon, 4.92 µM; with UO-31 renal it was 4.99 µM; with 786-0 renal it was 6.21 µM; in the experiment on SW-620 colon, 4.74 µM. Also, the GI50 in the experiment with SN12C renal is 5.86 µM; in the experiment on HS 578T breast it was 4.72 µM; in the experiment with M14 melanoma it was 5 µM; in the experiment on SK-MEL-5 melanoma, 4.63 µM. Moreover, the TGI in the experiment on KM12 colon was 24.5 µM; in the experiment on RXF 393 renal, 13.9 µM; in the experiment on HCT-116 colon, > 25 µM; in the experiment on UO-31 renal, 14.1 µM; in the experiment on 786-0 renal it was > 20.3 µM; with SW-620 colon it was 15.7 µM. The TGI in the experiment with SN12C renal was > 25 µM; in the experiment with HS 578T breast it was 14.8 µM; in the experiment with M14 melanoma, 17 µM; in the experiment on SK-MEL-5 melanoma, 9.83 µM.
As for `COc1ccccc1CNCCCN1C(=O)c2ccc3c4c(ccc(c24)C1=O)C(=O)N(CCCNCc1ccccc1OC)C3=O`, the GI50 is 0.116 µM with KM12 colon; 0.142 µM in the experiment on RXF 393 renal; 0.0805 µM with HCT-116 colon; 0.196 µM with UO-31 renal; 0.257 µM in the experiment on 786-0 renal; 0.0861 µM in the experiment on SW-620 colon. Besides, the GI50 is 0.151 µM with SN12C renal, 0.59 µM in the experiment with HS 578T breast, 0.179 µM in the experiment with M14 melanoma and 0.155 µM in the experiment with SK-MEL-5 melanoma. Moreover, the TGI with KM12 colon turned out to be 0.272 µM; in the experiment with RXF 393 renal, 0.281 µM; in the experiment on HCT-116 colon, 0.274 µM; with UO-31 renal, 0.458 µM; in the experiment on 786-0 renal it was 0.703 µM; with SW-620 colon it was 0.298 µM. The concentration for total growth inhibition (TGI) in the experiment on SN12C renal amounted to 0.305 µM; in the experiment with HS 578T breast, 2.13 µM; with M14 melanoma, 0.337 µM; in the experiment with SK-MEL-5 melanoma, 0.29 µM.
`O=C1NC(=O)C2C3C=CC(C12)C1C2C(=O)NC(=O)C2C31` (centres undefined): the GI50 was > 1000 µM in the experiment on KM12 colon; > 1000 µM in the experiment with RXF 393 renal; > 39.9 µM and 308 µM with HCT-116 colon; 596 µM in the experiment on UO-31 renal; > 250 µM with 786-0 renal; 419 µM in the experiment with SN12C renal. Also, the GI50 was 419 µM in the experiment with HS 578T breast, > 973 µM in the experiment on M14 melanoma and 389 µM in the experiment with SK-MEL-5 melanoma. Moreover, the concentration for total growth inhibition (TGI) in the experiment with KM12 colon was 250 µM and > 1000 µM; with RXF 393 renal it was 250 µM and > 1000 µM; in the experiment with HCT-116 colon, > 55.9 µM and 250 µM and > 1000 µM; in the experiment on UO-31 renal, 250 µM and > 1000 µM; in the experiment on 786-0 renal, > 1000 µM; in the experiment with SW-620 colon it was > 67.4 µM and 203 µM and > 1000 µM. Moreover, the TGI is 250 µM and > 1000 µM in the experiment with SN12C renal; 250 µM and > 562 µM in the experiment on HS 578T breast; 250 µM and > 1000 µM with M14 melanoma; 224 µM and > 756 µM in the experiment on SK-MEL-5 melanoma.
Consider `O=c1c(Oc2ccc(F)cc2F)cc2cnc(NC3CCOCC3)nc2n1C1CC1`, for which the GI50 in the experiment on KM12 colon was > 25 µM; with RXF 393 renal, > 17.1 µM; in the experiment on HCT-116 colon, > 25 µM; in the experiment on UO-31 renal, 2.21 µM; with 786-0 renal it was > 25 µM; with SW-620 colon, > 25 µM. For the same molecule, the GI50 was > 25 µM in the experiment on SN12C renal, > 16.9 µM with HS 578T breast, > 25 µM in the experiment on M14 melanoma and > 25 µM in the experiment on SK-MEL-5 melanoma. The TGI is > 25 µM with KM12 colon; > 25 µM with RXF 393 renal; > 25 µM with HCT-116 colon; 10.2 µM in the experiment on UO-31 renal; > 25 µM in the experiment with 786-0 renal; > 25 µM in the experiment with SW-620 colon. Also, the TGI in the experiment with SN12C renal, in the experiment on HS 578T breast, with M14 melanoma and with SK-MEL-5 melanoma was > 25 µM each time.
